Reference: patent publication EP2181998B1, “New benzothiazinone derivative and its use as antibacterial agent” (priority 2006, dated 2007)
In brackets after ≈: the same amount, converted by molar mass.

Tests used:
[1] = tested on: Mycobacterium tuberculosis H37Rv; assay: Murine TB model (experimental hematogenously disseminated tuberculosis); assay type: in vivo, BALB/c line mice; conditions: for Injury index: daily 6 times per week, four-score scale, liver, spleen and lungs; for Efficacy index (%): 100% - injury index of group / injury index of control x 100; for right lung Culture, without dilution CFU / spleen Culture, without dilution CFU: 42 days after inoculation of the culture medium
M. vaccae IMET 10 10670 = assay type: cell-based
in vivo = conditions: mouse
[2] = Toxicity after per os administration; conditions: mice
[3] = tested on: Mycobacterium tuberculosis H37Rv and clinical isolates 6341 and 6374; assay: MIC and MBC, classical method, over several strains; assay type: cell-based
[4] = tested on: Mycobacterium smegmatis SG 987; assay type: cell-based; conditions: Mycolicibacterium smegmatis, SG987; read-out: MIC M. smegmatis
[5] = tested on: Mycobacterium tuberculosis clinical isolate 6374; assay type: cell-based
[6] = tested on: Mycobacterium tuberculosis clinical isolate 6341; assay type: cell-based

## CC1COC2(CCN(c3nc(=O)c4cc(C(F)(F)F)cc([N+](=O)[O-])c4s3)CC2)O1 (centres unmarked) [Compound 2, 2-(2-methyl-1,4-dioxa-8-azaspiro[4.5]dec-8-yl)-8-nitro-6-(trifluoromethyl)-1,3-benzothiazin-4-one]
[1]; 12 mg/kg orally
  Injury index: 2,1
  Efficacy index (%): 44,7%
  right lung Culture, without dilution CFU: ∼ 60 CFU
  spleen Culture, without dilution CFU: ∼ 60 CFU
[1]; 25 mg/kg orally
  Injury index: 1,0
  Efficacy index (%): 78%
  right lung Culture, without dilution CFU: ∼ 35 CFU
  spleen Culture, without dilution CFU: ∼ 35 CFU
[1]; Group 3, 12 mg/kg oral, day of treatment 1, of 10 animals
  Survival of animals: 10
[1]; Group 3, 12 mg/kg oral, day of treatment 2, of 10 animals
  Survival of animals: 10
[1]; Group 3, 12 mg/kg oral, day of treatment 3, of 10 animals
  Survival of animals: 10
[1]; Group 3, 12 mg/kg oral, day of treatment 4, of 10 animals
  Survival of animals: 10
[1]; Group 3, 12 mg/kg oral, day of treatment 5, of 10 animals
  Survival of animals: 10
[1]; Group 3, 12 mg/kg oral, day of treatment 6, of 10 animals
  Survival of animals: 10
[1]; Group 3, 12 mg/kg oral, day of treatment 7, of 10 animals
  Survival of animals: 10
[1]; Group 3, 12 mg/kg oral, day of treatment 8, of 10 animals
  Survival of animals: 10
[1]; Group 3, 12 mg/kg oral, day of treatment 9, of 10 animals
  Survival of animals: 10
[1]; Group 3, 12 mg/kg oral, day of treatment 10, of 10 animals
  Survival of animals: 10
[1]; Group 3, 12 mg/kg oral, day of treatment 11, of 10 animals
  Survival of animals: 10
[1]; Group 3, 12 mg/kg oral, day of treatment 12, of 10 animals
  Survival of animals: 10
[1]; Group 3, 12 mg/kg oral, day of treatment 13, of 10 animals
  Survival of animals: 10
[1]; Group 3, 12 mg/kg oral, day of treatment 14, of 10 animals
  Survival of animals: 10
[1]; Group 3, 12 mg/kg oral, day of treatment 15, of 10 animals
  Survival of animals: 10
[1]; Group 3, 12 mg/kg oral, day of treatment 16, of 10 animals
  Survival of animals: 10
[1]; Group 3, 12 mg/kg oral, day of treatment 17, of 10 animals
  Survival of animals: 10
[1]; Group 3, 12 mg/kg oral, day of treatment 18, of 10 animals
  Survival of animals: 10
[1]; Group 3, 12 mg/kg oral, day of treatment 19, of 10 animals
  Survival of animals: 10
[1]; Group 3, 12 mg/kg oral, day of treatment 20, of 10 animals
  Survival of animals: 10
[1]; Group 3, 12 mg/kg oral, day of treatment 21, of 10 animals
  Survival of animals: 10
[1]; Group 3, 12 mg/kg oral, day of treatment 22, of 10 animals
  Survival of animals: 10
[1]; Group 3, 12 mg/kg oral, day of treatment 23, of 10 animals
  Survival of animals: 10
[1]; Group 3, 12 mg/kg oral, day of treatment 24, of 10 animals
  Survival of animals: 10
[1]; Group 3, 12 mg/kg oral, day of treatment 25, of 10 animals
  Survival of animals: 10
[1]; Group 3, 12 mg/kg oral, day of treatment 26, of 10 animals
  Survival of animals: 10
[1]; Group 3, 12 mg/kg oral, day of treatment 27
  Survival of animals: 100%
[1]; Groups 4/5, 25 mg/kg oral, day of treatment 1, of 10 animals
  Survival of animals: 10
[1]; Groups 4/5, 25 mg/kg oral, day of treatment 2, of 10 animals
  Survival of animals: 10
[1]; Groups 4/5, 25 mg/kg oral, day of treatment 3, of 10 animals
  Survival of animals: 10
[1]; Groups 4/5, 25 mg/kg oral, day of treatment 4, of 10 animals
  Survival of animals: 10
[1]; Groups 4/5, 25 mg/kg oral, day of treatment 5, of 10 animals
  Survival of animals: 10
[1]; Groups 4/5, 25 mg/kg oral, day of treatment 6, of 10 animals
  Survival of animals: 10
[1]; Groups 4/5, 25 mg/kg oral, day of treatment 7, of 10 animals
  Survival of animals: 10
[1]; Groups 4/5, 25 mg/kg oral, day of treatment 8, of 10 animals
  Survival of animals: 10
[1]; Groups 4/5, 25 mg/kg oral, day of treatment 9, of 10 animals
  Survival of animals: 10
[1]; Groups 4/5, 25 mg/kg oral, day of treatment 10, of 10 animals
  Survival of animals: 10
[1]; Groups 4/5, 25 mg/kg oral, day of treatment 11, of 10 animals
  Survival of animals: 10
[1]; Groups 4/5, 25 mg/kg oral, day of treatment 12, of 10 animals
  Survival of animals: 10
[1]; Groups 4/5, 25 mg/kg oral, day of treatment 13, of 10 animals
  Survival of animals: 10
[1]; Groups 4/5, 25 mg/kg oral, day of treatment 14, of 10 animals
  Survival of animals: 10
[1]; Groups 4/5, 25 mg/kg oral, day of treatment 15, of 10 animals
  Survival of animals: 10
[1]; Groups 4/5, 25 mg/kg oral, day of treatment 16, of 10 animals
  Survival of animals: 10
[1]; Groups 4/5, 25 mg/kg oral, day of treatment 17, of 10 animals
  Survival of animals: 10
[1]; Groups 4/5, 25 mg/kg oral, day of treatment 18, of 10 animals
  Survival of animals: 10
[1]; Groups 4/5, 25 mg/kg oral, day of treatment 19, of 10 animals
  Survival of animals: 10
[1]; Groups 4/5, 25 mg/kg oral, day of treatment 20, of 10 animals
  Survival of animals: 10
[1]; Groups 4/5, 25 mg/kg oral, day of treatment 21, of 10 animals
  Survival of animals: 10
[1]; Groups 4/5, 25 mg/kg oral, day of treatment 22, of 10 animals
  Survival of animals: 10
[1]; Groups 4/5, 25 mg/kg oral, day of treatment 23, of 10 animals
  Survival of animals: 10
[1]; Groups 4/5, 25 mg/kg oral, day of treatment 24, of 10 animals
  Survival of animals: 10
[1]; Groups 4/5, 25 mg/kg oral, day of treatment 25, of 10 animals
  Survival of animals: 10
[1]; Groups 4/5, 25 mg/kg oral, day of treatment 26, of 10 animals
  Survival of animals: 10
[1]; Groups 4/5, 25 mg/kg oral, day of treatment 27
  Survival of animals: 100%
[1]; murine model of tuberculosis infection, all control animals died until day 33
  mice survived: 100%
M. vaccae IMET 10 10670
  MIC M.vaccae: 0,76pg/ml
In vivo
  LD50: > 2000 mg/kg
[2]; doses ranging up to 2000 mg/kg
  toxicity: non toxic
[2]; doses up to 2000 mg/kg, during 7 days of investigations
  animal death: no cases of animal death
[3]; read-out: MBC (µg/mL) mean
  MBC: 0.45 µg/mL (≈ 1.04 µM)
[3]; read-out: MIC (µg/mL) mean
  MIC: 0.29 µg/mL (≈ 0.672 µM)
[4]
  MIC: 0.00156 µg/mL (≈ 0.00362 µM)
[5]
  MBC: 0.39 µg/mL (≈ 0.904 µM)
  MIC: 0.195 µg/mL (≈ 0.452 µM)
[6]
  MBC: 0.39 µg/mL (≈ 0.904 µM)
  MIC: 0.29 µg/mL (≈ 0.672 µM)
